{"source": "paper PMC5218480", "about": "(PLoS ONE, 2017)", "tested_on": "MV-4-11 cells", "experiment": "Gene expression microarray analysis (Affymetrix PrimeView) and GSEA", "assay_type": "cell-based, human", "parameters": "RFU PODN (11730768_x_at) / Fold change /veh PODN (11730768_x_at) / RFU LINC00158 (11744669_a_at) / Fold change /veh LINC00158 (11744669_a_at) / RFU DUSP10 (11751237_a_at) / Fold change /veh DUSP10 (11751237_a_at) / RFU ID3 (11757404_x_at) / Fold change /veh ID3 (11757404_x_at) / RFU PLEKHG5 (11737974_s_at) / Fold change /veh PLEKHG5 (11737974_s_at) / RFU LRRC4B (11730491_at) / Fold change /veh LRRC4B (11730491_at) / RFU GIMAP4 (11747438_a_at) / Fold change /veh GIMAP4 (11747438_a_at) / RFU KRT8 (11758183_x_at) / Fold change /veh KRT8 (11758183_x_at) / RFU CNN1 (11734310_a_at) / Fold change /veh CNN1 (11734310_a_at) / RFU VPS37D (11726825_at) / Fold change /veh VPS37D (11726825_at) / RFU C10orf10 (11716522_x_at) / Fold change /veh C10orf10 (11716522_x_at) / RFU KIR2DL2 /// KIR2DL4 /// KIR2DL5A /// KIR2DL5B /// KIR2DS1 /// KIR2DS2 /// KIR2DS3 /// KIR2DS4 /// KIR3DL3 /// KIR3DL3 /// KIR3DS1 (11738374_at) / Fold change /veh KIR2DL2 /// KIR2DL4 /// KIR2DL5A /// KIR2DL5B /// KIR2DS1 /// KIR2DS2 /// KIR2DS3 /// KIR2DS4 /// KIR3DL3 /// KIR3DL3 /// KIR3DS1 (11738374_at) / RFU C1QL1 (11718748_at) / Fold change /veh C1QL1 (11718748_at) / RFU TMPRSS4 (11747572_a_at) / Fold change /veh TMPRSS4 (11747572_a_at) / RFU HAMP (11756126_x_at) / Fold change /veh HAMP (11756126_x_at) / RFU RNFT2 (11725882_a_at) / Fold change /veh RNFT2 (11725882_a_at) / RFU NR4A2 (11747474_a_at) / Fold change /veh NR4A2 (11747474_a_at) / RFU ABCC12 (11746883_a_at) / Fold change /veh ABCC12 (11746883_a_at) / RFU TMEM136 (11760407_x_at) / Fold change /veh TMEM136 (11760407_x_at) / RFU CLDN22 /// WWC2 (11732394_at) / Fold change /veh CLDN22 /// WWC2 (11732394_at) / RFU HLA-DPB1 (11760878_x_at) / Fold change /veh HLA-DPB1 (11760878_x_at) / RFU SPINT1 (11716480_a_at) / Fold change /veh SPINT1 (11716480_a_at) / RFU GAP43 (11754022_s_at) / Fold change /veh GAP43 (11754022_s_at) / RFU A4GNT (11735810_at) / Fold change /veh A4GNT (11735810_at) / RFU PRB3 (11715151_x_at) / Fold change /veh PRB3 (11715151_x_at) / RFU TUBB4B (11761932_at) / Fold change /veh TUBB4B (11761932_at) / RFU CAPN14 (11732068_a_at) / Fold change /veh CAPN14 (11732068_a_at) / RFU TMCC2 (11721928_a_at) / Fold change /veh TMCC2 (11721928_a_at) / RFU IRGQ (11745062_a_at) / Fold change /veh IRGQ (11745062_a_at) / RFU FAM174B (11720279_a_at) / Fold change /veh FAM174B (11720279_a_at) / RFU TMPRSS4 (11748680_a_at) / Fold change /veh TMPRSS4 (11748680_a_at) / RFU FAM212B (11763350_a_at) / Fold change /veh FAM212B (11763350_a_at) / RFU PLEKHG5 (11743358_a_at) / Fold change /veh PLEKHG5 (11743358_a_at) / RFU ZSCAN30 (11745921_a_at) / Fold change /veh ZSCAN30 (11745921_a_at) / RFU CMKLR1 (11741424_a_at) / Fold change /veh CMKLR1 (11741424_a_at) / RFU LOC101060620 /// MAPK8IP1 (11723275_at) / Fold change /veh LOC101060620 /// MAPK8IP1 (11723275_at) / RFU SPTSSB (11747773_x_at) / Fold change /veh SPTSSB (11747773_x_at) / RFU PRSS12 (11739890_at) / Fold change /veh PRSS12 (11739890_at) / RFU BIN1 (11741810_x_at) / Fold change /veh BIN1 (11741810_x_at) / RFU WNT11 (11732464_a_at) / Fold change /veh WNT11 (11732464_a_at) / RFU C10orf10 (11716521_a_at) / Fold change /veh C10orf10 (11716521_a_at) / RFU C5orf56 (11738089_at) / Fold change /veh C5orf56 (11738089_at) / RFU CYB561 (11721691_x_at) / Fold change /veh CYB561 (11721691_x_at) / RFU ANKRD19P (11752326_a_at) / Fold change /veh ANKRD19P (11752326_a_at) / RFU OR2T12 /// OR2T33 /// OR2T8 (11738714_s_at) / Fold change /veh OR2T12 /// OR2T33 /// OR2T8 (11738714_s_at) / RFU VCAN (11748164_a_at) / Fold change /veh VCAN (11748164_a_at) / RFU JSRP1 (11732532_at) / Fold change /veh JSRP1 (11732532_at) / RFU KRTAP10-11 (11738290_x_at) / Fold change /veh KRTAP10-11 (11738290_x_at) / RFU MYO3A (11730013_a_at) / Fold change /veh MYO3A (11730013_a_at) / RFU EBF3 (11725865_a_at) / Fold change /veh EBF3 (11725865_a_at) / RFU CAMK2N1 (11719241_x_at) / Fold change /veh CAMK2N1 (11719241_x_at) / RFU C5orf56 (11738088_a_at) / Fold change /veh C5orf56 (11738088_a_at) / RFU OLFML3 (11715873_a_at) / Fold change /veh OLFML3 (11715873_a_at) / RFU LOC100653217 /// NTM (11731650_a_at) / Fold change /veh LOC100653217 /// NTM (11731650_a_at) / RFU MAPK11 (11762145_a_at) / Fold change /veh MAPK11 (11762145_a_at) / RFU FIZ1 (11724087_x_at) / Fold change /veh FIZ1 (11724087_x_at) / RFU OASL (11726364_x_at) / Fold change /veh OASL (11726364_x_at) / RFU SOX15 (11748057_x_at) / Fold change /veh SOX15 (11748057_x_at) / RFU CD79A (11719716_a_at) / Fold change /veh CD79A (11719716_a_at) / RFU HIST1H1D (11736915_at) / Fold change /veh HIST1H1D (11736915_at) / RFU CASKIN2 (11723855_a_at) / Fold change /veh CASKIN2 (11723855_a_at) / RFU LOC730098 (11760151_x_at) / Fold change /veh LOC730098 (11760151_x_at) / RFU OR4N2 (11742367_at) / Fold change /veh OR4N2 (11742367_at) / RFU PRRT2 (11749266_a_at) / Fold change /veh PRRT2 (11749266_a_at) / RFU SNX32 (11753110_a_at) / Fold change /veh SNX32 (11753110_a_at) / RFU CDHR5 (11726645_a_at) / Fold change /veh CDHR5 (11726645_a_at) / RFU RCAN1 (11760418_a_at) / Fold change /veh RCAN1 (11760418_a_at) / RFU FAM167A (11723789_a_at) / Fold change /veh FAM167A (11723789_a_at) / RFU FAM26E (11764081_at) / Fold change /veh FAM26E (11764081_at) / RFU ISYNA1 (11749810_s_at) / Fold change /veh ISYNA1 (11749810_s_at) / RFU ACY1 (11761880_at) / Fold change /veh ACY1 (11761880_at) / RFU 11764098_at / Fold change /veh 11764098_at / RFU SAMD14 (11745864_x_at) / Fold change /veh SAMD14 (11745864_x_at) / RFU NPB (11741838_a_at) / Fold change /veh NPB (11741838_a_at) / RFU TMPRSS6 (11731388_a_at) / Fold change /veh TMPRSS6 (11731388_a_at) / RFU KRTAP10-2 (11738614_at) / Fold change /veh KRTAP10-2 (11738614_at) / RFU ARHGAP8 /// PRR5-ARHGAP8 (11727945_x_at) / Fold change /veh ARHGAP8 /// PRR5-ARHGAP8 (11727945_x_at) / RFU KRTAP5-7 /// NADSYN1 (11734609_at) / Fold change /veh KRTAP5-7 /// NADSYN1 (11734609_at) / RFU RASL12 (11751679_a_at) / Fold change /veh RASL12 (11751679_a_at) / RFU CDKN2B (11736163_a_at) / Fold change /veh CDKN2B (11736163_a_at) / RFU PRF1 (11729649_at) / Fold change /veh PRF1 (11729649_at) / RFU, ZNF638 /// ZNF638-IT1 / Fold change vs veh, ZNF638 /// ZNF638-IT1 / RFU, PANK3 / Fold change vs veh, PANK3 / RFU, SH3YL1 / Fold change vs veh, SH3YL1 / RFU, ZEB2 / Fold change vs veh, ZEB2 / RFU, NRIP1 / Fold change vs veh, NRIP1 / RFU, PTTG1IP / Fold change vs veh, PTTG1IP / RFU, CAPN2 / Fold change vs veh, CAPN2 / RFU, MED14 / Fold change vs veh, MED14 / RFU, SNORA58 / Fold change vs veh, SNORA58 / RFU, C1orf63 / Fold change vs veh, C1orf63 / RFU, LRRFIP1 / Fold change vs veh, LRRFIP1 / RFU, NDUFAF7 / Fold change vs veh, NDUFAF7 / RFU, SLC12A2 / Fold change vs veh, SLC12A2 / RFU, IBTK / Fold change vs veh, IBTK / RFU, ESF1 / Fold change vs veh, ESF1 / Fold change vs veh, TMEM50B / RFU, TAOK1 / Fold change vs veh, TAOK1 / RFU, ACBD3 / Fold change vs veh, ACBD3 / RFU, TMA16 / Fold change vs veh, TMA16 / RFU, RWDD3 / Fold change vs veh, RWDD3 / RFU, BCAT1 / Fold change vs veh, BCAT1 / RFU, EDEM3 / Fold change vs veh, EDEM3 / RFU, TMEM33 / Fold change vs veh, TMEM33 / RFU, WDR75 / Fold change vs veh, WDR75 / RFU, AHCTF1 / Fold change vs veh, AHCTF1 / RFU, TFRC / Fold change vs veh, TFRC / RFU, ZDHHC17 / Fold change vs veh, ZDHHC17 / RFU, NOM1 / Fold change vs veh, NOM1 / RFU, ARL8B / Fold change vs veh, ARL8B / RFU, ZBTB11 / Fold change vs veh, ZBTB11 / RFU, TAMM41 / Fold change vs veh, TAMM41 / RFU, KIAA1704 /// LOC100996395 / Fold change vs veh, KIAA1704 /// LOC100996395 / RFU, ING1 / Fold change vs veh, ING1 / RFU, TRMT61B / Fold change vs veh, TRMT61B / RFU, FUBP3 / Fold change vs veh, FUBP3 / RFU, TP53 / Fold change vs veh, TP53 / RFU, TNKS2 / Fold change vs veh, TNKS2 / RFU, ZFP14 / Fold change vs veh, ZFP14 / RFU, ACTR2 / Fold change vs veh, ACTR2 / RFU, PPP3R1 / Fold change vs veh, PPP3R1 / RFU, PIK3R1 / Fold change vs veh, PIK3R1 / RFU, HNRNPA1 / Fold change vs veh, HNRNPA1 / RFU, RNF170 / Fold change vs veh, RNF170 / RFU, ZNF28 / Fold change vs veh, ZNF28 / RFU, RNGTT / Fold change vs veh, RNGTT / RFU, OGT / Fold change vs veh, OGT / RFU, BRD1 / Fold change vs veh, BRD1 / RFU, MARS / Fold change vs veh, MARS / RFU, ZNF655 / Fold change vs veh, ZNF655 / RFU, FAHD1 / Fold change vs veh, FAHD1 / RFU, BDP1 / Fold change vs veh, BDP1 / RFU, LRRCC1 / Fold change vs veh, LRRCC1 / RFU, ARID1A / Fold change vs veh, ARID1A / RFU, ZNF146 / Fold change vs veh, ZNF146 / RFU, ZNF330 / Fold change vs veh, ZNF330 / RFU, GPN3 / Fold change vs veh, GPN3 / RFU, C9orf123 / Fold change vs veh, C9orf123 / RFU, N4BP2L2 / Fold change vs veh, N4BP2L2 / RFU, ARFIP1 / Fold change vs veh, ARFIP1 / RFU, FAM179B / Fold change vs veh, FAM179B / RFU, BCL10 / Fold change vs veh, BCL10 / RFU, UHRF1BP1L / Fold change vs veh, UHRF1BP1L / RFU, BET1 / Fold change vs veh, BET1 / RFU, CNOT2 / Fold change vs veh, CNOT2 / RFU, ZNF268 / Fold change vs veh, ZNF268 / Fold change vs veh, ZNF507 / RFU, DGCR2 / Fold change vs veh, DGCR2 / RFU, WDSUB1 / Fold change vs veh, WDSUB1 / Fold change vs veh, HSP90B1 /// MIR3652 / RFU, ADSS / Fold change vs veh, ADSS / RFU, GK / Fold change vs veh, GK / RFU, ZNF148 / Fold change vs veh, ZNF148 / RFU, TAF9 / Fold change vs veh, TAF9 / RFU, SLC1A5 / Fold change vs veh, SLC1A5 / RFU, SLMO2 / Fold change vs veh, SLMO2 / RFU, ABCC4 / Fold change vs veh, ABCC4 / RFU, LOC101060439 /// RAP1B / Fold change vs veh, LOC101060439 /// RAP1B / RFU, RFX7 / Fold change vs veh, RFX7 / RFU, GTPBP10 / Fold change vs veh, GTPBP10 / RFU, CNEP1R1 / Fold change vs veh, CNEP1R1 / RFU, BIVM-ERCC5 /// ERCC5 / Fold change vs veh, BIVM-ERCC5 /// ERCC5 / RFU, ILF3 / Fold change vs veh, ILF3 / RFU 11762660_at / Fold change /veh 11762660_at / RFU VCAN (11757783_s_at) / Fold change /veh VCAN (11757783_s_at) / RFU DDX43 (11728927_at) / Fold change /veh DDX43 (11728927_at) / RFU KRT8 (11758188_x_at) / Fold change /veh KRT8 (11758188_x_at) / RFU NKD1 (11759106_at) / Fold change /veh NKD1 (11759106_at) / RFU SRD5A1 (11742802_a_at) / Fold change /veh SRD5A1 (11742802_a_at) / RFU TPSAB1 /// TPSB2 (11721975_s_at) / Fold change /veh TPSAB1 /// TPSB2 (11721975_s_at) / RFU GSTM3 (11746129_a_at) / Fold change /veh GSTM3 (11746129_a_at) / RFU IL23R (11737362_x_at) / Fold change /veh IL23R (11737362_x_at) / RFU TMEM51 (11727254_a_at) / Fold change /veh TMEM51 (11727254_a_at) / RFU PIWIL2 (11732686_x_at) / Fold change /veh PIWIL2 (11732686_x_at) / RFU ORM1 (11744905_x_at) / Fold change /veh ORM1 (11744905_x_at) / RFU CCDC152 (11743942_at) / Fold change /veh CCDC152 (11743942_at) / RFU ECM1 (11717891_a_at) / Fold change /veh ECM1 (11717891_a_at) / RFU IL23R (11748794_a_at) / Fold change /veh IL23R (11748794_a_at) / RFU TNFAIP8L3 (11732012_x_at) / Fold change /veh TNFAIP8L3 (11732012_x_at) / RFU MBOAT4 (11741988_at) / Fold change /veh MBOAT4 (11741988_at) / RFU 11764193_at / Fold change /veh 11764193_at / RFU TMEM53 (11763286_at) / Fold change /veh TMEM53 (11763286_at) / RFU MAGEB2 (11727129_at) / Fold change /veh MAGEB2 (11727129_at) / RFU TMEM200A (11744735_a_at) / Fold change /veh TMEM200A (11744735_a_at) / RFU CCDC152 (11751479_a_at) / Fold change /veh CCDC152 (11751479_a_at) / RFU FAM211A (11726209_a_at) / Fold change /veh FAM211A (11726209_a_at) / RFU RGS16 (11746705_a_at) / Fold change /veh RGS16 (11746705_a_at) / RFU VCAN (11755009_s_at) / Fold change /veh VCAN (11755009_s_at) / RFU RHOB (11743442_s_at) / Fold change /veh RHOB (11743442_s_at) / RFU RGS16 (11720943_a_at) / Fold change /veh RGS16 (11720943_a_at) / RFU RGS16 (11720944_at) / Fold change /veh RGS16 (11720944_at) / RFU, VPS4B / Fold change vs veh, VPS4B / RFU, CREB1 / Fold change vs veh, CREB1 / RFU, DNAJC13 / Fold change vs veh, DNAJC13 / RFU, GNAQ / Fold change vs veh, GNAQ / RFU, CDK5R1 / Fold change vs veh, CDK5R1 / RFU, ZRANB3 / Fold change vs veh, ZRANB3 / RFU, CUL4A / Fold change vs veh, CUL4A / RFU, CCNY / Fold change vs veh, CCNY / RFU, UFL1 / Fold change vs veh, UFL1 / RFU, COG3 / Fold change vs veh, COG3 / RFU, DIAPH2 / Fold change vs veh, DIAPH2 / RFU, SKA2 / Fold change vs veh, SKA2 / RFU, AFF3 / Fold change vs veh, AFF3 / RFU, LMF1 / Fold change vs veh, LMF1 / RFU, IPO11 / Fold change vs veh, IPO11 / RFU, DFFB / Fold change vs veh, DFFB / RFU, FOXP1 / Fold change vs veh, FOXP1 / RFU, CARD8 / Fold change vs veh, CARD8 / RFU, STRN3 / Fold change vs veh, STRN3 / RFU, ADK / Fold change vs veh, ADK / RFU, RASSF2 / Fold change vs veh, RASSF2 / RFU, WIPF1 / Fold change vs veh, WIPF1 / RFU, LARP1B / Fold change vs veh, LARP1B / RFU, RASA1 / Fold change vs veh, RASA1 / RFU, RB1 / Fold change vs veh, RB1 / RFU, PPFIA1 / Fold change vs veh, PPFIA1 / RFU, MAT2A / Fold change vs veh, MAT2A / RFU, CCT5 / Fold change vs veh, CCT5 / RFU, WDR92 / Fold change vs veh, WDR92 / RFU, CUX1 / Fold change vs veh, CUX1 / RFU, TTC7A / Fold change vs veh, TTC7A / RFU, TMEM135 / Fold change vs veh, TMEM135 / RFU, DEPTOR / Fold change vs veh, DEPTOR / RFU, CPM / Fold change vs veh, CPM / RFU, DNAJB6 / Fold change vs veh, DNAJB6 / RFU, CACNA2D3 / Fold change vs veh, CACNA2D3 / RFU, DTX4 / Fold change vs veh, DTX4 / RFU, TFCP2 / Fold change vs veh, TFCP2 / RFU, GMCL1 /// GMCL1P1 / Fold change vs veh, GMCL1 /// GMCL1P1 / RFU, AEBP2 / Fold change vs veh, AEBP2 / RFU, SNHG1 /// SNORD22 /// SNORD25 /// SNORD26 /// SNORD27 /// SNORD28 /// SNORD29 /// SNORD31 / Fold change vs veh, SNHG1 /// SNORD22 /// SNORD25 /// SNORD26 /// SNORD27 /// SNORD28 /// SNORD29 /// SNORD31 / Fold change (Aza/veh), C12orf56 (ProbeSet 11735607_a_at) / Fold change (ACY-1035/veh), C12orf56 (ProbeSet 11735607_a_at) / Fold change (Aza/veh), FGFR1OP (ProbeSet 11751329_s_at) / Fold change (ACY-1035/veh), FGFR1OP (ProbeSet 11751329_s_at) / Fold change (Aza/veh), VPS36 (ProbeSet 11739960_a_at) / Fold change (ACY-1035/veh), VPS36 (ProbeSet 11739960_a_at) / RFU SYPL1 (11715823_x_at) / Fold change /veh SYPL1 (11715823_x_at) / RFU IGFBP7 (11715501_s_at) / Fold change /veh IGFBP7 (11715501_s_at) / RFU REEP3 (11722064_at) / Fold change /veh REEP3 (11722064_at) / RFU IGLL1 (11728026_x_at) / Fold change /veh IGLL1 (11728026_x_at): dose or concentration left out as unconfirmed", "conditions": "ProbeSet 11718977_a_at; LIST B"}
{"smiles": "Nc1ccc(-c2cccs2)cc1NC(=O)c1ccc2c(c1)cc(C1CC1)n2CCN1CCOCC1", "note": "[ACY-1035]", "values": [{"measurement": "RFU, CAPN2", "result": 162.48, "unit": "RFU"}]}
